Several values for one entry are separate records, joined by “and”; a condition that tells them apart may be missing. Equal values may be shown once.
Assays:
[1] = biological target: T1, CAR1 (Homo sapiens, UniProt Q14994); assay: Nuclear receptor selectivity reporter assay, CAR1; assay type: cell-based; conditions: HepG2, 10 µM
T1 construct: expressed in transfected cells; host or cells: HepG2
T1 sequence (Q14994 1-348 isoform Q14994-2): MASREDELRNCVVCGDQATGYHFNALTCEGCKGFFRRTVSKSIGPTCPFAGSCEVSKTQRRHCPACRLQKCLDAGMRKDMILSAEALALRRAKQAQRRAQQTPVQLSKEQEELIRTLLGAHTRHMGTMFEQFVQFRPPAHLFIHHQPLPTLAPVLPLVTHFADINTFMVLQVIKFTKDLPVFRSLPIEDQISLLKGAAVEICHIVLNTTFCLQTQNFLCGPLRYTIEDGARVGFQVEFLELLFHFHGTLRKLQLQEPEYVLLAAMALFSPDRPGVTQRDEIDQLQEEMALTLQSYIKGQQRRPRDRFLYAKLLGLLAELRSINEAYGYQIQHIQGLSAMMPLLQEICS
Procedure: For testing nuclear receptor selectivity and LBP-filled PXR mutant activation, transient batch transfection was conducted as above, but with HepG2 cells and the following plasmids, with amounts per well of 0.23–0.27 µg pGL4-CYP3A4(-7830Δ7208-364) or pGL3(DR3)3Tk (as reporter for VDR), 0.01 µg pMetLuc2control, and 0.03 µg either CAR1, CAR3, VDR, or PXR(S208W/S247W/C284W) expression plasmids. In addition, 0.03 µg RXRα expression plasmid was added to CAR3 transfections. Metridia luciferase activity was measured from 10 µL of medium supernatant after adding 100 µL Renilla luciferase assay solution.
Figure 6 Selectivity of novel PXR ligands within the NR1I group of nuclear receptors. HepG2 cells were transiently transfected with CYP3A4 reporter and expression plasmids encoding (A) CAR1 or (B) CAR3, or (C) direct repeat (DR3)3 reporter and expression plasmid encoding VDR. Cells were treated with 0.2% DMSO or 10 µM chemicals as indicated. 1α,25(OH)2D3 was used at 1 µM.

[2] = biological target: T2, PXR (Homo sapiens, UniProt O75469); assay: PXR-dependent CYP3A4 reporter gene assay, agonist mode; assay type: cell-based; design: expressed in transfected cells; host or cells: H-P cells (HepG2 stably transfected with PXR); conditions: H-P cells; for EC50 / fold induction at 24 h: compound alone; for EC50 / activation of CYP3A4 reporter on their own, % of rifampicin activity: 24 h; for EC50: read-out: EC50, PXR activation; for fold induction at 24 h: human, vs DMSO, read-out: maximal effect (Emax), fold induction; for activation of CYP3A4 reporter on their own, % of rifampicin activity: 10 µM compound alone, 10 µM rifampicin = 100%
T2 sequence (O75469 1-434): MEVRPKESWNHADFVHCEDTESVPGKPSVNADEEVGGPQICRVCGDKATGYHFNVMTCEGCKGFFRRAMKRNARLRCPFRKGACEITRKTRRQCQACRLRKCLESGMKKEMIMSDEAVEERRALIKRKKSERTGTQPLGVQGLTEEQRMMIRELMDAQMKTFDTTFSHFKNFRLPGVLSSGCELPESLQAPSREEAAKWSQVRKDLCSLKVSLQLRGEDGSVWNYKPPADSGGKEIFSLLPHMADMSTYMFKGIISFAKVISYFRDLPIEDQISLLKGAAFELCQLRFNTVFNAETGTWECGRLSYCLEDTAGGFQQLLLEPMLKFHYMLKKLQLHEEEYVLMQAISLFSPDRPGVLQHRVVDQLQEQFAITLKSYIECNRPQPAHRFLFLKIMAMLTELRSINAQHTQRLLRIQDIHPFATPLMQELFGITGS
Source text: Figure 1 Identification of novel putative PXR ligands from the TüKIC library. (A) Workflow of the in silico screening and structures of the identified candidate ligands. (B) Concentration–response curves of the novel inhibitors for antagonism of PXR activity. (C) Concentration–response curves of the same compounds and 109 for PXR activation. […] Data are expressed as mean ± SD fold induction with respect to the DMSO-treated cells from three independent experiments. IC50 and EC50 values calculated with nonlinear regression using formula with 3 parameters (constraint bottom =1) using GraphPadPrism.
Supplementary Figure S1. Effects of 56 in silico screened TüKIC compounds (A) alone or (B) in combination […]
H-P cells were transiently
Luciferase activities were measured after 24 h treatment. Data is expressed as mean ± SD %. Activation was calculated according to Zhu et al. from three independent experiments with technical triplicates. Fold induction achieved by 10 μM […]
Green and red dashed lines represent the 100% and 50% activation, respectively.
(1 picture or pasted object on this page, not shown here)

[3] = test system: CYP3A4; assay: PXR target gene mRNA expression in LS174T cells (RT-qPCR); conditions: 10 µM single treatment, 48 h (109) or 72 h (73, 100)
[4] = biological target: T3, PXR LBD (Homo sapiens, UniProt O75469); assay: Mammalian two-hybrid PXR LBD assembly assay; assay type: cell-based; conditions: HepG2, 10 µM, 24 h
T3 construct: GAL4-DBD/PXR(132–188); VP16-AD/PXR(189–434); expressed in transfected cells; host or cells: HepG2
T3 sequence (O75469 132-188): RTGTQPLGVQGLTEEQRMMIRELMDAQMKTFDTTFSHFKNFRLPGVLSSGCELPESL
T3 sequence (O75469 189-434): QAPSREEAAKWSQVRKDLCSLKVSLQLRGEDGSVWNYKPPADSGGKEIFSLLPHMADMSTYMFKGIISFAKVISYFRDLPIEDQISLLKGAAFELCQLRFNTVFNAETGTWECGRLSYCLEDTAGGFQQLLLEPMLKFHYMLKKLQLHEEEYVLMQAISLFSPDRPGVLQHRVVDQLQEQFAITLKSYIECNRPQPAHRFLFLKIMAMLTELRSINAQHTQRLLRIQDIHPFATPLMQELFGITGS
Procedure: For the mammalian two-hybrid PXR ligand-binding domain assembly assay, 0.24 µg pGL4-G5, 0.01 µg pMetLuc2control, and 0.03 µg each of expression plasmids encoding GAL4-DBD/PXR(132–188) and VP16-AD/PXR(189–434) fusion proteins were used per well. Otherwise, batch transfection was performed as above with HepG2 cells.
Figure 5 PXR binding of phenylaminobenzosuberones is indicated by cellular PXR LBD assembly assay and inhibition of LBP-filled PXR mutant (A) Novel compounds induce PXR LBD assembly. […] (B) Effects of novel compounds on LBP-filled PXR mutant. HepG2 cells were transiently transfected with CYP3A4 reporter and expression plasmid encoding PXR(S208W/S247W/C284W) and treated as described above. […] Statistically significant differences are illustrated with asterisks. ** p ˂ 0.01, compared to respective treatments with DMSO analyzed by repeated measures one-way ANOVA with Dunnett’s multiple comparisons test.

[5] = test system: ABCB1; assay: PXR target gene mRNA expression in LS174T cells (RT-qPCR); conditions: for expression of ABCB1 mRNA: 10 µM single treatment, 48 h (109) or 72 h (73, 100); for effect on rifampicin-mediated induction of ABCB1: 10 µM compound + 10 µM rifampicin, 72 h
Procedure: In chemical treatments, phenol red-free DMEM was used, and regular FBS was replaced by dextran-coated charcoal-treated FBS. For gene expression analyses, 0.3 × 10^6 LS174T cells were seeded per well of a 12-well plate. The next day, chemical treatment was initiated for 48–72 h, with daily medium change.
Total RNA was prepared from LS174T and HepaRG cells using the NucleoSpin RNA kit (Macherey-Nagel, Düren, Germany). RNA integrity was analyzed by formaldehyde-agarose gel electrophoresis. First strand cDNA was synthesized as described earlier [37]. Relative quantification analyses were conducted with TaqMan RT-PCR utilizing the BioMark HD system and FLEX Six Gene Expression Integrated Fluidic Circuits (Fluidigm, South San Francisco, CA, USA) as described previously [34]. TaqMan gene expression assays were either the commercially available predesigned assays Hs00184500_m1 (ABCB1) and Hs00604506_m1 (CYP3A4) (Thermo Fischer Scientific) or have been described previously: CYP2B6 [31] and 18S rRNA [39]. Data were analyzed as described previously [37]. Gene expression levels were normalized to respective 18S rRNA levels.

SMILES | activation of CAR1 [1] | EC50 [2] | fold induction at 24 h [2] | expression of CYP3A4 mRNA [3] | assembly of the PXR LBD [4] | expression of ABCB1 mRNA [5] | suppression of constitutive activity of CAR1 [1] [%] | activation of CYP3A4 reporter on their own, % of rifampicin activity [2] | effect on rifampicin-mediated induction of ABCB1 [5]
O=C(Nc1ccc(F)c(Nc2ccc3c(c2)CCCCC3=O)c1)c1cccc(F)c1 [Compound 109] | did not reach statistical significance | 44 µM and 29.2 µM | 27 | induced both genes | induced the assembly of the PXR LBD | induced to a lesser extent than by rifampicin |  |  | 
Cc1ccc(NC(=O)Cc2ccccc2)cc1Nc1ccc2c(c1)CCCCC2=O [Compound 73] |  | 0.41 µM | ~2 | induced CYP3A4 expression, which was comparable to induction by rifampicin | induced the assembly of the PXR LBD | not induced | 30 | about 10% | suppressed its rifampicin-mediated induction
O=C(Cc1ccccc1)Nc1ccc(F)c(Nc2ccc3c(c2)CCCCC3=O)c1 [Compound 100] |  | 0.15 µM | ~2 | induced CYP3A4 expression, which was comparable to induction by rifampicin | induced the assembly of the PXR LBD | not induced | 30 | about 10% | suppressed its rifampicin-mediated induction
